From PMC8757611, “Synthesis, biological evaluation, and molecular docking of new series of antitumor and apoptosis inducers designed as VEGFR-2 inhibitors” (Journal of Enzyme Inhibition and Medicinal Chemistry, 2022)

Key:
VEGFR-2 = test system: VEGFR-2; parameters: method as in PMID 22153662; conditions: cited from earlier work
MCF-7 = experiment: In vitro antitumor MTT assay, MCF-7; assay type: cell-based, human; conditions: for IC50: Homo sapiens, MCF7, MTT, mean ± S.D. of three experiments
Experimental: (§1) The antitumor assay was performed against the human cancer cell lines: HepG2, PC3, and MCF-7. The chemicals used in this test were supplied by Sigma-Aldrich with high analytical grade. National Cancer Institute (Cairo, Egypt) was the supplier of the cell lines tested which originally obtained from American Type Culture Collection (ATCC). MTT protocol was applied to quantitatively measure the antiproliferative activity of the new derivatives. In this test, the colour change is attributed to that the yellow tetrazolium bromide (MTT) is converted to formazan derivative which has purple colour. This biochemical reaction occurs only in viable cells by mitochondrial succinate dehydrogenase. The tested cells were initially cultured in RPMI-1640 medium with foetal bovine serum (10%). To the incubated cell, streptomycin (100 µg/mL) and penicillin (100 units/mL) were added in a 5% CO2 incubator at 37 °C. Then seeding of the cells was performed in a 96-well plate under 5% CO2 and at density of 1.0 × 10^4 cells/well at 37 °C for 48 h. Various non-toxic concentrations of the tested candidates were added and the cells were then incubated for further 24 h to the cells treated with the new compounds, MTT solution (20 µL at 5 mg/mL) was added, followed by 4 h incubation. One hundred microlitres of Dimethyl sulfoxide (DMSO) were added into each well to dissolve the purple formazan formed which is colorimetrically absorbed at 570 nm using a plate reader (EXL 800, USA). Finally, the percentages of cell viability was obtained as (A570 of treated samples/A570 of untreated sample) × 100.

HepG2 [1] = experiment: In vitro antitumor MTT assay, HepG2; assay type: cell-based, human; conditions: for IC50: Homo sapiens, HepG2, MTT, mean ± S.D. of three experiments
Experimental: as §1

PC3 = experiment: In vitro antitumor MTT assay, PC3; assay type: cell-based, human; conditions: for IC50: Homo sapiens, PC-3, MTT, mean ± S.D. of three experiments
Experimental: as §1

WI-38 = experiment: Cytotoxicity against normal lung fibroblasts (MTT); assay type: cell-based; conditions: normal human lung fibroblasts
Experimental: as §1
Of note, the cytotoxicity against normal human lung fibroblasts cell line (WI-38) were examined for the nine selected compounds.

VEGFR-2 kinase = molecular target: T1, VEGFR-2 kinase (Homo sapiens, UniProt P35968); experiment: VEGFR-2 inhibition testing (ELISA kit); assay type: biochemical
T1 construct: purchased
T1 sequence (P35968 20-1356): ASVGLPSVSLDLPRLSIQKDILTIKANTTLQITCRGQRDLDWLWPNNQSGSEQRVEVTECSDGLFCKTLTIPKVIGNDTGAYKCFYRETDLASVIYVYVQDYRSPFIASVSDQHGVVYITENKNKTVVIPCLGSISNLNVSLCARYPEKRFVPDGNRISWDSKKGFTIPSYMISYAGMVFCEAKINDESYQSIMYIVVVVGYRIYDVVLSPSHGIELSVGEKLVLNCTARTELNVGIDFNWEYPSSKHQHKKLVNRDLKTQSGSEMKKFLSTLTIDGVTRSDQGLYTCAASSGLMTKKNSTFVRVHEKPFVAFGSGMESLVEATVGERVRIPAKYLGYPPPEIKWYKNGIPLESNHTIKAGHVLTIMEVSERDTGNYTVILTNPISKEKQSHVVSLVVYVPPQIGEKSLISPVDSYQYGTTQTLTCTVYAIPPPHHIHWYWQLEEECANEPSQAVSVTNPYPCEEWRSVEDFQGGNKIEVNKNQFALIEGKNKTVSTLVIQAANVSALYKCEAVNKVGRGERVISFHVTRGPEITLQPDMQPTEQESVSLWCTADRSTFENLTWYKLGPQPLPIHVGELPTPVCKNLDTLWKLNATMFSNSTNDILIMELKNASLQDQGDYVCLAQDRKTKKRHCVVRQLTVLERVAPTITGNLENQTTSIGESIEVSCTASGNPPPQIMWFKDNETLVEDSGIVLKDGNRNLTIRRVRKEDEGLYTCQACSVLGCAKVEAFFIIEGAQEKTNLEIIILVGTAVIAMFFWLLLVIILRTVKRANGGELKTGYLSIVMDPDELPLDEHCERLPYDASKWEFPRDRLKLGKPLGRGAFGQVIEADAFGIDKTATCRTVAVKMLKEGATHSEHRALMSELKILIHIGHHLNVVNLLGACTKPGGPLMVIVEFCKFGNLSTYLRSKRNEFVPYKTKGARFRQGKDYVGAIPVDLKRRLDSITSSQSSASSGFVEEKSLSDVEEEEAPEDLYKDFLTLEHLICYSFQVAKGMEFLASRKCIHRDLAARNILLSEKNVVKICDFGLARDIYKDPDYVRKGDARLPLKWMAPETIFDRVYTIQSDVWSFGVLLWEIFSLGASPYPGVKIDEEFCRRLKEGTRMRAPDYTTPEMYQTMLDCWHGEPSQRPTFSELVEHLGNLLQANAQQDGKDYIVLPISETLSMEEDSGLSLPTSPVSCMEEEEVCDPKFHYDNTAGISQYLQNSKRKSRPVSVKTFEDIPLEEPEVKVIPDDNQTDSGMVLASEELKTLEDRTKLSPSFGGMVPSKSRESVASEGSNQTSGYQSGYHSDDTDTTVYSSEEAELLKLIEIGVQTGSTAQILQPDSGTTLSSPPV
Experimental: Enzyme linked immunosorbent assay (ELISA) technique was applied to human VEGFR-2 ELISA kit to calculate IC50 of all new derivatives against VEGFR-2 kinase. The antibody specific to the enzyme was planted on a 96 well microplate to which different micromolar concentrations of the positive control and the new compounds was added. […] Finally, stop solution (50 µL) was added and the reading was immediately determined at 450 nm. To get the standard curve, the concentrations used were presented on the X-axis and the corresponding absorbances were on the Y-axis.

[2] = test system: human cancer cell lines HepG2, PC3, MCF-7; experiment: In vitro antitumor MTT assay, panel of HepG2, PC3 and MCF-7; assay type: cell-based; conditions: range over HepG2, PC3 and MCF-7, read-out: IC50 against human cancer cell lines
Experimental: as §1

HER2 = molecular target: T2, HER2 (Homo sapiens, UniProt P04626); experiment: Multi-kinase assay (HTRF), HER2; assay type: biochemical
T2 construct: purchased Sigma
T2 sequence (P04626 23-1255): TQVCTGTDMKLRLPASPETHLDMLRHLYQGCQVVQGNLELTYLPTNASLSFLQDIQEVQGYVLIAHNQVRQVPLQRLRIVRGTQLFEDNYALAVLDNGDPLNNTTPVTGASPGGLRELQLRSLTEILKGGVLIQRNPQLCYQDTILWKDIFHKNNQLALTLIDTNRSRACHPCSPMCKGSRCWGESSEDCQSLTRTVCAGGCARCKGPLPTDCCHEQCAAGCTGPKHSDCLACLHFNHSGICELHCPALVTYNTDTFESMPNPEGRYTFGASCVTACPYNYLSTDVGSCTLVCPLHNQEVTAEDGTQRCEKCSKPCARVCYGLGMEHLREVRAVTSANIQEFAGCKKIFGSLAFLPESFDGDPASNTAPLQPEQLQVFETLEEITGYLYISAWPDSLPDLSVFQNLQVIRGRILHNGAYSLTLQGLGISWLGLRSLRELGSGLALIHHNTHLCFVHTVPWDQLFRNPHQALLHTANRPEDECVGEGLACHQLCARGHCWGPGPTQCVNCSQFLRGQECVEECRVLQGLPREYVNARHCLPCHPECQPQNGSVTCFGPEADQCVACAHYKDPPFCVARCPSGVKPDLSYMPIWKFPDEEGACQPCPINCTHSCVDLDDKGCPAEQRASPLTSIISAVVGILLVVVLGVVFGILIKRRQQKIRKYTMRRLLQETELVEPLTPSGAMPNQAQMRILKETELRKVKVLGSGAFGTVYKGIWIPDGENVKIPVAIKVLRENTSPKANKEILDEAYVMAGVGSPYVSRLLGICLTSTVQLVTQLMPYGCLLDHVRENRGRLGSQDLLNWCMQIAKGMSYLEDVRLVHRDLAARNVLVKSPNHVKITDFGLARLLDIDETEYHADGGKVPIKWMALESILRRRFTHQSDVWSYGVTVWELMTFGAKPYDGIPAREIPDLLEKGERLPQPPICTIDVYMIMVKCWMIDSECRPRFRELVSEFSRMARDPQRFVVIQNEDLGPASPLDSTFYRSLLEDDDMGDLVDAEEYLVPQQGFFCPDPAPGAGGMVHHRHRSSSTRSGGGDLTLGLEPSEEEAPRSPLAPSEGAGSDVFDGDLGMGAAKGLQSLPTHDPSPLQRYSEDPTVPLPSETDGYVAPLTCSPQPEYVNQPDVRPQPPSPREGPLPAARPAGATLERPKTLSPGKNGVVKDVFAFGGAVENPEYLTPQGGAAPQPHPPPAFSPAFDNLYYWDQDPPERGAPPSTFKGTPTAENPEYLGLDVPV
Experimental: (§2) Different kinases and ATP were obtained from Sigma. The specified kinase and its substrate was incubated with compound for 5 min in buffer solution to start the enzymatic reaction; ATP was then added to the reaction mixture and was maintained for 30 min at room temperature.

P53 = experiment: Apoptotic marker level in HepG2, p53; assay type: cell-based, human; conditions: HepG2, at IC50, 24 h; control 42.84
Experimental: (§3) HepG2 cells were cultured and treated with compound 15d for 24 h. after that cells were collected and washed with PBS, then were collected and lysed by adding it to the extraction buffer containing protease inhibitors (1 ml per 1 × 10^6 cells.) then the lysate was diluted immediately before the assay. Caspase-3, BAX, Bcl-2, and p53 level was measured by using Quantikine-Human active kits (R&D Systems, Inc. Minneapolis, USA) according to the manufacturer protocols.

HepG2 [3] = experiment: Effect on apoptosis rate of HepG2 (Annexin V-FITC/PI); assay type: cell-based, human
Experimental: Apoptosis ratio of HepG2 treated with 9.6 µg of compound 15d in comparison with untreated HepG2 cells was calculated according to the reported method using Annexin V fluorescein isothiocyanate (V-FITC)/PI kit[36].

Bcl-2 = experiment: Apoptotic marker level in HepG2, Bcl-2; assay type: cell-based, human; conditions: HepG2, at IC50, 24 h; control 5.761
Experimental: as §3

HepG2 [4] = experiment: Effect on cell cycle of HepG2 (PI flow cytometry); assay type: cell-based, human; conditions: at its IC50
Experimental: The protocol reported by Wang et al.[35] was followed to determine the effect of 15d on cell cycle of HepG2. The cancer cells (2 × 10^5 cells) were seeded and incubated in each of six-well plates for 24 h. The cells were further incubated at 37 °C and 5% CO2 after addition of foetal bovine serum (FBS, 10%). The medium was replaced by DMSO solution (1% v/v) in which 9.6 µg of compound 15d was dissolved. Well plates were then incubated for 48 h and then rinsed with cold phosphate-buffered saline (PBS), fixed with ethanol (70%) and washed again with PBS. DNA fluorochrome propidium iodide (PI) was used to stain the cells which were then kept for 15 min at 37 °C. FACS Calibre flow cytometer was used to analyse the samples.

BAX = experiment: Apoptotic marker level in HepG2, BAX; assay type: cell-based, human; conditions: HepG2, at IC50, 24 h; control 40.62
Experimental: as §3

FGFR = experiment: Multi-kinase assay (HTRF), FGFR; assay type: biochemical
Experimental: as §2

Caspase-3 = experiment: Apoptotic marker level in HepG2, Caspase-3; assay type: cell-based, human; conditions: HepG2, at IC50, 24 h; control 49.6274
Experimental: as §3

O=C(Nc1ccccc1)Nc1ccc(Oc2nc(Cl)nc3ccccc23)cc1 [Compound 14a, 1-(4-((2-Chloroquinazolin-4-yl)oxy)phenyl)-3-phenylurea]
IC50 (MCF-7): 58.3 ± 4.87 µM
IC50 (HepG2 [1]): 41.5 ± 3.6 µM
melting point: 236 to 237 °C
IC50 (PC3): 50.7 ± 4.36 µM
IC50 (WI-38): 235 ± 2.43 µM
IC50 (VEGFR-2 kinase): 0.0671 ± 0.00107 µM

CCCCNC(=O)Nc1ccc(Oc2nc(Cl)nc3ccccc23)cc1 [Compound 14b, 1-Butyl-3-(4-((2-chloroquinazolin-4-yl)oxy)phenyl)urea]
melting point: 214 to 215 °C
IC50 (VEGFR-2 kinase): 0.0942 ± 0.00153 µM

O=C(Nc1ccc(Oc2nc(Cl)nc3ccccc23)cc1)c1ccccc1 [Compound 15a, N-(4-((2-Chloroquinazolin-4-yl)oxy)phenyl)benzamide]
IC50 [2]: 17.4 to 47.1 µM
IC50 (MCF-7): 47.1 ± 3.59 µM
IC50 (HepG2 [1]): 34.6 ± 2.82 µM
melting point: 244 to 245 °C
IC50 (PC3): 30.3 ± 2.56 µM
IC50 (WI-38): 250 ± 2.51 µM
IC50 (VEGFR-2 kinase): 0.0673 ± 0.00154 µM

O=C(Nc1ccc(Oc2nc(Cl)nc3ccccc23)cc1)c1ccc(Cl)cc1 [Compound 15b, 4-Chloro-N-(4-((2-chloroquinazolin-4-yl)oxy)phenyl)benzamide]
IC50 [2]: 17.4 to 47.1 µM
IC50 (MCF-7): 19.9 ± 1.79 µM
potency relative to sorafenib potency, MCF-7 (MCF-7; fraction of sorafenib potency): 0.73
IC50 (HepG2 [1]): 17.4 ± 1.54 µM
potency relative to sorafenib potency, HepG2 (HepG2 [1]; fraction of sorafenib potency): 0.74
melting point: 249 to 250 °C
IC50 (PC3): 25.6 ± 2.31 µM
potency relative to sorafenib potency, PC3 (PC3; fraction of sorafenib potency): 0.76
IC50 (WI-38): 233 ± 2.39 µM
IC50 (VEGFR-2 kinase): 0.0864 ± 0.00176 µM

O=C(Nc1ccc(Oc2nc(Cl)nc3ccccc23)cc1)c1cccc(Cl)c1 [Compound 15c, 3-Chloro-N-(4-((2-chloroquinazolin-4-yl)oxy)phenyl)benzamide]
IC50 (MCF-7): 62.7 ± 5.12 µM
IC50 (HepG2 [1]): 50.4 ± 4.39 µM
melting point: 229 to 230 °C
IC50 (PC3): 56 ± 1.9 µM
IC50 (WI-38): 236 ± 2.39 µM
IC50 (VEGFR-2 kinase): 0.0652 ± 0.00136 µM

O=C(Nc1ccc(Oc2nc(Cl)nc3ccccc23)cc1)c1cccnc1 [Compound 15d, N-(4-((2-Chloroquinazolin-4-yl)oxy)phenyl)nicotinamide]
IC50 (HER2): 0.253 ± 0.0016 µM
P53 level (P53): 415.027 pg/mL
% Apoptosis Late (HepG2 [3]; HepG2, at IC50, control 0.33): 7.13%
% Apoptosis Early (HepG2 [3]; HepG2, at IC50, control 0.87): 5.33%
% Necrosis (HepG2 [3]; HepG2, at IC50, control 1.17): 2.35%
Total (apoptosis and necrosis) (HepG2 [3]; HepG2, at IC50, control 2.37): 14.81%
fold increase in apoptosis of HepG2 (HepG2 [3]; at IC50, versus control): 10 folds
apoptosis rate of HepG2 (HepG2 [3]; at IC50, control […]): 12.46%
IC50 [2]: 17.4 to 47.1 µM
Bcl-2 level (Bcl-2): 1.385 pg/mL
cell cycle phases in which growth of HepG2 is stopped (HepG2 [4]): both G2/M and pre G1 phases
IC50 (MCF-7): 33.4 ± 2.92 µM
BAX level (BAX): 395.04 pg/mL
IC50 (HepG2 [1]): 24.1 ± 2.12 µM
IC50 (FGFR): 0.381 ± 0.0018 µM
Casp3 level (Caspase-3): 561.427 pg/mL
IC50 (PC3): 40.9 ± 3.46 µM
IC50 (WI-38): 221 ± 2.55 µM
IC50 (VEGFR-2 kinase): 0.06 ± 0.00145 µM

O=C(Nc1ccccc1)Nc1ccc(Oc2nc3ccccc3nc2Cl)cc1 [Compound 19a, 1-(4-((3-Chloroquinoxalin-2-yl)oxy)phenyl)-3-phenylurea]
melting point: 248 to 249 °C
IC50 (VEGFR-2 kinase): 0.0936 ± 0.00182 µM

CCCCNC(=O)Nc1ccc(Oc2nc3ccccc3nc2Cl)cc1 [Compound 19b, 1-Butyl-3-(4-((3-chloroquinoxalin-2-yl)oxy)phenyl)urea]
IC50 (MCF-7): 105 ± 7.57 µM
IC50 (HepG2 [1]): 73.4 ± 5.95 µM
melting point: 227 to 228 °C
IC50 (PC3): 84.4 ± 6.68 µM
IC50 (WI-38): 230 ± 2.51 µM
IC50 (VEGFR-2 kinase): 0.0752 ± 0.00157 µM

O=C(Nc1ccc(Oc2nc3ccccc3nc2Cl)cc1)c1ccccc1 [Compound 20a, N-(4-((3-Chloroquinoxalin-2-yl)oxy)phenyl)benzamide]
melting point: 258 to 259 °C
IC50 (VEGFR-2 kinase): 0.108 ± 0.00225 µM
